Data on 20 compounds can be found in PubChem BioAssay (NCI).

Among the test systems are DMS 114 small cell lung; DMS 273 small cell lung; HOP-18 NSCLC; LXFL 529 NSCLC; SNB-78 CNS; XF 498 CNS; KM20L2 colon; RXF-631 renal; MDA-N; P388 leukemia; P388/ADR leukemia; SN12K1 renal.
Holding throughout (assay): NCI tumour cell line growth inhibition, 48 h

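Each compound was tested at five concentrations against cells in 96-well plates for 48 hours. At the GI50, growth is halved. TGI: concentration producing complete growth inhibition.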 Bounds are passed on as bounds.

As for `COC(=O)c1c2c(cc3c1CC1(Cc4cc5c(c(C(C)=O)c4C1)CCC5)C3)CCC2` (stereo not drawn), the TGI with DMS 114 small cell lung, in the assay on DMS 273 small cell lung, in the assay with HOP-18 NSCLC, in the assay on LXFL 529 NSCLC, in the assay with SNB-78 CNS and in the assay on XF 498 CNS was more than 100 µM throughout.

For the compound `COc1ccc(CCc2cc(OC)cc(OC)c2)cc1`, the TGI was 24.6 µM in the assay with DMS 114 small cell lung; more than 100 µM in the assay on DMS 273 small cell lung; more than 100 µM in the assay with HOP-18 NSCLC; more than 58 µM in the assay with KM20L2 colon; more than 100 µM in the assay with LXFL 529 NSCLC; more than 72.7 µM in the assay with RXF-631 renal. Also, the TGI is more than 100 µM with SNB-78 CNS and 83.8 µM in the assay with XF 498 CNS.

In the case of `COc1ccc(C(=O)C(CC2C(=O)NC(=O)NC2=O)c2ccc(OC)cc2)cc1` (stereo not drawn), the TGI in the assay with DMS 114 small cell lung, in the assay with DMS 273 small cell lung, in the assay on HOP-18 NSCLC, in the assay on KM20L2 colon, with LXFL 529 NSCLC and in the assay with SNB-78 CNS was more than 100 µM in each case. Besides, the TGI in the assay with XF 498 CNS is more than 100 µM.

As for `CC(C)Cc1ccc(C(C)CC2=CCC(CN(C)C)C2=O)cc1` (stereo not drawn), the TGI in the assay with DMS 114 small cell lung is 10.9 µM; with DMS 273 small cell lung, 14.9 µM; in the assay with HOP-18 NSCLC, 32.6 µM; in the assay on KM20L2 colon, 21.2 µM; with LXFL 529 NSCLC, 3.11 µM; in the assay on MDA-N, 17.9 µM. The TGI in the assay with P388 leukemia is 6.34 µM; with P388/ADR leukemia, more than 100 µM; in the assay on RXF-631 renal it was 30.5 µM; in the assay on SN12K1 renal it was 11.7 µM; with SNB-78 CNS, 14.7 µM.

Consider `N.N.N.N.N.O=[N+]([O-])[O-].[Co+3].[O-][Cl+3]([O-])([O-])[O-]`, for which the GI50 in the assay with DMS 273 small cell lung, in the assay with KM20L2 colon, in the assay with LXFL 529 NSCLC and with SNB-78 CNS was more than 100 µM each time. Further, the TGI in the assay with DMS 273 small cell lung, with KM20L2 colon, with LXFL 529 NSCLC and in the assay with SNB-78 CNS was more than 100 µM in each case.

As for `C[C@]12CC[C@H](O)CC1=CC[C@@H]1C2CC[C@]2(C)Nc3c(cnn3-c3ccccc3)CC12` (stereo partly drawn), the TGI in the assay on DMS 114 small cell lung stood at 15.1 µM; in the assay on DMS 273 small cell lung, 3.66 µM; with KM20L2 colon, 5.8 µM; in the assay with LXFL 529 NSCLC it was 19.7 µM; with RXF-631 renal, 3.82 µM; in the assay with SNB-78 CNS it was 67.7 µM.

As for `C1CC[N-]CC1.CC(=N\O)/C(C)=N/O.CC(=N\O)/C(C)=N/O.OC1[CH-]CCCC1.[Co+2]`, in the assay with MDA-N, the GI50 is 40.9 µM and the TGI is more than 100 µM.

As for `CCOC(=O)N1CCc2cc(OC)c(OC)cc2/C1=C\c1ccc(OC)c(OC)c1`, the TGI in the assay on DMS 114 small cell lung was more than 100 µM; in the assay on DMS 273 small cell lung, 61.9 µM; with HOP-18 NSCLC, 90.7 µM; with KM20L2 colon it was 65.4 µM; in the assay on LXFL 529 NSCLC, more than 100 µM; in the assay on SNB-78 CNS, more than 100 µM. The same compound gave a TGI with XF 498 CNS of more than 10 µM.

Turning to `COC(=O)C1C(O)C(C)C(O)C(C)C=C(C)C2=C3C(=C(C)C(=O)c4c(O)c(c(C)c(OC(C)=O)c43)NC(=O)C(C)=C/C=C\C(C)C(O)C(C)C1O)OCO2` (stereo not drawn), the TGI in the assay on MDA-N is 31.8 µM.

Regarding `O=C1CCC(N2C(=O)c3ccccc3C2=O)C(=O)N1` (stereo not drawn), the TGI with MDA-N is more than 100 µM.

Regarding `O=c1[nH]c2ccccc2n1CCCN1CCC(n2c(=O)[nH]c3cc(Cl)ccc32)CC1`, the TGI with MDA-N was 29.4 µM.

On to `CCCC(=O)N[C@H]1C2C3CC4C5CC(C42)C1(C)C53` (stereo partly drawn), for which the TGI in the assay on DMS 273 small cell lung, in the assay on HOP-18 NSCLC, in the assay with KM20L2 colon and with SNB-78 CNS was more than 100 µM throughout.

As to `Cc1cccc(C)c1NC(=O)CCc1nc(=S)[nH][nH]1`, the TGI with DMS 114 small cell lung, in the assay on KM20L2 colon, in the assay with LXFL 529 NSCLC, in the assay with RXF-631 renal, in the assay on SNB-78 CNS and with XF 498 CNS was more than 100 µM in each case.

For `CC(=O)O[C@]1(C)OC(=O)[C@@H](CC(C)C)N1[N+](=O)[O-]`, the TGI in the assay on DMS 114 small cell lung, with DMS 273 small cell lung, in the assay on HOP-18 NSCLC, in the assay with KM20L2 colon, in the assay on LXFL 529 NSCLC and with SNB-78 CNS was more than 100 µM each time.

Consider `CC1CCSC(N(C(=O)N(C)c2ccccc2)c2ccccc2)=N1` (stereo not drawn), for which the TGI with DMS 114 small cell lung, with DMS 273 small cell lung, in the assay with KM20L2 colon, with LXFL 529 NSCLC, in the assay with SNB-78 CNS and in the assay with XF 498 CNS was more than 100 µM throughout.

With `Cc1c(NC(=S)NC(=O)c2ccc([N+](=O)[O-])cc2)c(=O)n(-c2ccccc2)n1C`, the TGI in the assay with DMS 114 small cell lung, in the assay on DMS 273 small cell lung, in the assay with HOP-18 NSCLC, with KM20L2 colon, in the assay on LXFL 529 NSCLC and in the assay with SNB-78 CNS was more than 100 µM throughout.

As to `CC(C)OP(=O)(OC(C)C)/C(N)=N/Nc1ccc([N+](=O)[O-])cc1`, the TGI in the assay on DMS 114 small cell lung, in the assay with DMS 273 small cell lung, in the assay with KM20L2 colon, in the assay with LXFL 529 NSCLC, in the assay with SNB-78 CNS and in the assay on XF 498 CNS was more than 100 µM each time.

For the compound `CCOC(=O)CCn1ncc(Cl)c(Cl)c1=O`, the TGI with DMS 114 small cell lung came out at 4.3 µM; in the assay on DMS 273 small cell lung it was 27 µM; in the assay on HOP-18 NSCLC it was 11.7 µM; in the assay on KM20L2 colon it was 31.4 µM; with LXFL 529 NSCLC, 10.5 µM; with RXF-631 renal, 7.92 µM. Besides, the TGI was determined as 22.1 µM in the assay on SNB-78 CNS and 37.9 µM in the assay with XF 498 CNS.

For the compound `C#Cc1c(C)c(/C=C/C(C)=C/C(=O)OC)n(C)c1C`, the TGI with DMS 114 small cell lung, with DMS 273 small cell lung, with HOP-18 NSCLC, in the assay with KM20L2 colon, with LXFL 529 NSCLC and with SNB-78 CNS was more than 100 µM each time. This compound came in with a TGI in the assay with XF 498 CNS of more than 100 µM.

On to `CN1CCc2c1nc(-c1ccc(Cl)cc1)c1c2N(C)CC1`, for which the TGI is 34.3 µM with DMS 114 small cell lung; 32 µM in the assay with DMS 273 small cell lung; 72.3 µM in the assay with KM20L2 colon; 77 µM in the assay on LXFL 529 NSCLC; more than 100 µM in the assay on SNB-78 CNS; 32.6 µM in the assay on XF 498 CNS.
